Like-named read-outs stand apart in the source and are kept apart here.
Experiments:
[1] = target: T1, GAL4-mPPARγ (Mus musculus, UniProt P37238); experiment: GAL4-mPPARγ activation, transient transfection luciferase reporter in COS7 cells; assay type: cell-based; details: for Activation of GAL4-PPARγ (text): COS7, 100 μM through 0.137 μM; for EC50: COS7, ligands 24 hr, nonlinear regression variable slope, spirodiclofen constrained at top dose, read-out: PPARγ agonists: EC50, Fig 1A / Fig 4A; for PPARγ agonists: EC10, Fig 1A / Fig 4A: COS7, computed from EC50 in GraphPad Quick Calc
T1 construct: expressed in transfected cells; host or cells: COS7

[2] = tested on: PPARγ; details: cited from earlier work; for PPARγ agonists: EC10, ATG: AC10, ToxCast 2014 release; for AC50: PPARγ, NA = not active; for EC50: gain AC50, ToxCast 2014 release, read-out: PPARγ agonists: EC50, ATG
[3] = tested on: PPRE; design: method as in Knudsen et al. 2011; details: ToxCast Phase I 2011 release; NA = not active; ref Knudsen et al. 2011; read-out: ATGC PPRE AC50; cited from earlier work
[4] = target: T1, GAL4-mPPARγ; experiment: GAL4-mPPARγ antagonism in competition with 50 nM rosiglitazone, transiently transfected COS7 cells; assay type: cell-based
Procedure: pCMX-Gal4, pCMX-Gal4-mPPARγ, and pCMX-Gal4-hRXRα were previously described ([Grün et al. 2006]). Transient transfections were performed in COS7 cells as described ([Chamorro-García et al. 2012]). Briefly, COS7 cells were seeded at 15,000 cells per well in 96-well tissue culture plates in 10% calf bovine serum. The following day, cells were transfected in Opti-MEM at ~ 90% confluency. One microgram of CMX-GAL4 effector plasmid was co-transfected with 5 μg tk-(MH100)4-luciferase reporter and 5 μg of CMX-β-galactosidase transfection control plasmids in Opti-MEM® using Lipofectamine® 2000 reagent (Invitrogen™ Life Technologies, Carlsbad, CA, USA), following the manufacturer’s recommended protocol. All chemicals were solvated in dimethyl sulfoxide (DMSO). After overnight incubation, the medium was replaced with Dulbecco’s Modified Eagle Medium (DMEM; HyClone, Logan, UT, USA), 10% resin charcoal stripped fetal bovine serum (FBS) plus ligands at concentrations indicated in the figure legends for an additional 24 hr. DMSO concentration was maintained at 0.05% across all chemical treatments. Cells were lysed and assayed for luciferase and β-galactosidase activity as previously described ([Forman et al. 1995]). All transfections were performed in triplicate and reproduced in multiple experiments. Data are reported as fold induction or reduction over vehicle ([…]) controls ± SEM (standard error of the mean) using standard propagation of error ([Bevington and Robinson 2003]). […] The EC50, EC10, IC50, and IC10 values from NCGC and ToxCast™ are reported from gain AC50 and AC10 values in the ToxCast™ 2014 release ([Filer et al. 2014]).
Figure 1 ToxCast™ Chemical Activity on PPARγ. The ability of a graded dose series of ToxCast™ chemicals to (A) activate or (B) antagonize GAL4-mPPARγ was tested in transiently transfected COS7 cells. (A, B) Data points are averages of triplicate transfections (three biological replicates). […] Data are depicted as (A) fold induction or (B) reduction over vehicle (0.05% DMSO) controls ± SEM. (A) ToxCast™ chemicals were tested in 3-fold serial dilutions from 100 μM through 0.137 μM, with the final data point being 0.05% DMSO. Rosiglitazone serves as a positive control activator. (B) ToxCast™ chemicals were tested in 3-fold serial dilutions from 100 μM, in competition with 50 nM rosiglitazone (Rosi). […] (C) EC50, EC10, IC50, and IC10 values calculated from A and B are reported and compared to commercial assays (see Figure S1). Note: ATG, Attagene GAL-PPARγ activation assay; NCGC, GeneBLAzer® agonist (EC values) or antagonist (IC values) assays. Triphenyltin was previously published ([Kanayama et al. 2005]).

[5] = tested on: Human PPARγ; details: PPARγ direct binding, NA = not active, cited from earlier work
[6] = tested on: PPARγ; design: method as in Filer et al. 2014; details: ref Filer et al. 2014, cited from earlier work; for AC50: PPARγ, NA = not active, read-out: NCGC Antag. AC50, 2014 Release
[7] = Cos-7 transient transfection, PPARγ activation or antagonism assays (Table 1, Table S6)
[8] = ref Filer et al. 2014, read-out: ATG Agonist AC50, 2014 Release
[9] = ref Knudsen et al. 2011, read-out: ATG Agonist AC50, 2011 Release

T1 sequence (P37238 with tags, fused parts or gaps limits assumed): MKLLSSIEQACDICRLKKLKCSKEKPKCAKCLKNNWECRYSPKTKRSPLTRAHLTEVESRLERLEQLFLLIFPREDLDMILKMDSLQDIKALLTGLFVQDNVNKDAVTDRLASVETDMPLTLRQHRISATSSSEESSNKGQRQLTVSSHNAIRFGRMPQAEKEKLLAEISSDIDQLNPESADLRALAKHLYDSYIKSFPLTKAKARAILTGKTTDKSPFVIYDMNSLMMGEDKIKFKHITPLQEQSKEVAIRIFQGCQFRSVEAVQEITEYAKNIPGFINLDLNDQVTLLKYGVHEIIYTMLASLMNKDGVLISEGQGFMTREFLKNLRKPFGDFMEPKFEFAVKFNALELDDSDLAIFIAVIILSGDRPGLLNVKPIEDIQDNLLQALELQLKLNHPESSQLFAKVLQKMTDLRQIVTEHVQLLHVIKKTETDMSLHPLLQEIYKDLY

| Structure (SMILES) | Activation of GAL4-PPARγ (text) [1] | EC50 [1] | PPARγ agonists: EC10, Fig 1A / Fig 4A [1] | AC50 ([1]; Cos-7 transient transfection) | Activation COS7 (result in words), ToxCast PPARγ list [1, 7] | PPARγ agonists: EC10, ATG ([2]; ref Filer et al. 2014) | AC50 [2, 8] | AC50 [2, 9] | EC50 ([2]; ref Filer et al. 2014) | AC50 [6] | other results |
| --- | --- | --- | --- | --- | --- | --- | --- | --- | --- | --- | --- |
| Fc1ccc(Oc2ccnc3cc(Cl)cc(Cl)c23)cc1 [Quinoxyfen] | weakly active at 100 μM and 33 μM doses | 33.4 µM | 14.24 µM | 33.4 µM | PPARγ Activator | 3.98 µM | 5.1 µM | 6.6 µM | 5.12 µM |  | Activation COS7 (result in words), ToxCast PPARγ list [1]: Inactive; Activation of GAL4-PPARγ (text) ([1]; listed as quinoxyfen): activated PPARγ; Activation COS7 (result in words), ToxPi chemicals ([1]; Cos-7 transient transfection, PPARγ or RXRα activation assays (Table 2)): PPARγ activator; AC50 [3]: 2.8 µM |
| CCC(C)(C)C(=O)OC1=C(c2ccc(Cl)cc2Cl)C(=O)OC12CCCCC2 [Spirodiclofen] | activated GAL-PPARγ | 12.8 µM | 7.27 µM |  | PPARγ activator | 0.10 µM | 1.9 µM | 3.6 µM | 1.85 µM |  | AC50 ([1]; read-out: Activation AC50 (PPARγ activators), Cos-7 transient transfection): 12.8 µM |
| O=[N+]([O-])c1cc(C(F)(F)F)c(Cl)c([N+](=O)[O-])c1Nc1ncc(C(F)(F)F)cc1Cl [Fluazinam] | did not activate PPARγ |  |  |  |  |  | 1.2 µM | 0.51 µM |  | 1.3 µM | IC50 [4]: 7.2 µM; AC50 ([4]; Activation AC50 (PPARγ antagonists), Cos-7 transient transfection, competition with 50 nM rosiglitazone): 7.2 µM; Antagonism of PPARγ ([4]; COS7, competition against 50 nM rosiglitazone): weak antagonists; PPARγ antagonists: IC10, Fig 1B ([4]; COS7, in competition with 50 nM rosiglitazone, computed from IC50): 4.41 µM; Activation COS7 (result in words): PPARγ antagonist ([4]; Cos-7 transient transfection, competition with 50 nM rosiglitazone): PPARγ antagonist; AC50 ([5]; ref Filer et al. 2014, read-out: NVS Agonist AC50, 2014 Release): 0.26 µM; AC50 ([5]; ref Knudsen et al. 2011, read-out: NVS Agonist AC50, 2011 Release): 0.28 µM; PPARγ antagonists: IC10, NCGC ([6]; AC10, ToxCast 2014 release): 0.20 µM; IC50 ([6]; read-out: PPARγ antagonists: IC50, NCGC, gain AC50, ToxCast 2014 release): 1.27 µM |
| CCC(C)(NC(=O)c1cc(Cl)c(C)c(Cl)c1)C(=O)CCl (stereo not drawn) [Zoxamide] | activated GAL-PPARγ | 1.31 µM | 0.31 µM | 1.31 µM | PPARγ activator | 0.18 µM | 1.3 µM | 1.5 µM | 1.27 µM | 0.4 µM |  |

From PMC4977052, “On the Utility of ToxCast™ and ToxPi as Methods for Identifying New Obesogens” (Environmental Health Perspectives, 2016)
